The results in this text go back to ChEMBL document CHEMBL5365394, “Design, synthesis and biological evaluation of novel spiro-quinazolinone derivatives as chitin synthase inhibitors and antifungal agents” (Eur J Med Chem, 2023).

Molecules are shown by their SMILES. In brackets after ≈: the same amount, converted by molar mass.

The subject of series [1] is Aspergillus fumigatus. Description: Antifungal activity against Aspergillus fumigatus GIMCC 3.19 assessed as fungal growth inhibition incubated for 24 hrs by two-fold serial dilution method. The format is functional.
For series [2], the system named is Candida albicans. The series is described as follows: Antifungal activity against Candida albicans ATCC 76615 assessed as fungal growth inhibition incubated for 24 hrs by two-fold serial dilution method. The format is functional.
In series [3] the test system is Aspergillus flavus. Description: Antifungal activity against Aspergillus flavus ATCC 16870 assessed as fungal growth inhibition incubated for 24 hrs by two-fold serial dilution method. Type of series: functional.
Series [4] has as its system Cryptococcus neoformans. Description: Antifungal activity against Cryptococcus neoformans ATCC 32719 assessed as fungal growth inhibition incubated for 24 hrs by two-fold serial dilution method. Type of series: functional.
The subject of another series is Candida tropicalis. The series is described as follows: Inhibition of Candida tropicalis ATCC 750 chitin synthase using […] as substrate at 300 ug/ml incubated for 1 hr by absorbance based assay relative to control. Conditions: dose 300.0 µg/ml.
The nature of series [5]: Inhibition of Candida tropicalis ATCC 750 chitin synthase using UDP-GlcNAc as substrate incubated for 1 hr by absorbance based assay.
Series [6] relates to Aspergillus flavus. Description: Antifungal activity against Aspergillus flavus ATCC 16870 assessed as inhibition of cell wall synthesis incubated for 24 hrs in absence of sorbitol. The format is functional.
In series [7] the test system is Aspergillus fumigatus. Description: Antifungal activity against Aspergillus fumigatus GIMCC 3.19 assessed as inhibition of cell wall synthesis incubated for 24 hrs in absence of sorbitol. Type of series: functional.
Series [8] has as its system Candida albicans. Description: Antifungal activity against Candida albicans ATCC 76615 assessed as inhibition of cell wall synthesis incubated for 24 hrs in presence of sorbitol. Type of series: functional.
For series [9], the system named is Cryptococcus neoformans. Description: Antifungal activity against Cryptococcus neoformans ATCC 32719 assessed as inhibition of cell wall synthesis incubated for 24 hrs in presence of sorbitol. The format is functional.
Series [10] has as its system Aspergillus flavus. Description: Antifungal activity against Aspergillus flavus ATCC 16870 assessed as inhibition of cell wall synthesis incubated for 24 hrs in presence of sorbitol. The format is functional.
The next series relates to A549. The series is described as follows: Cytotoxicity against human A549 cells assessed as cell viability incubated for 24 hrs at 128 ug/ml by CCK-8 assay relative to control. Conditions: dose 128 µg/ml.
Series [11] has as its system Aspergillus fumigatus. The series is described as follows: Antifungal activity against Aspergillus fumigatus GIMCC 3.19 assessed as inhibition of cell wall synthesis incubated for 24 hrs in presence of sorbitol. The format is functional.
The nature of series [12]: Cytotoxicity against human A549 cells assessed as cell viability at 32 ug/ml incubated for 24 hrs by CCK-8 assay relative to control. The format is toxicity, cell-based. The note with it: at 32 µg/mL, read-out: Activity. A general note: Tetrazolium assays rely on reduction of a dye to a coloured formazan, in cell work by metabolically active cells.
Series [13] can be described thus: Cytotoxicity against human A549 cells assessed as cell viability at 4 ug/ml incubated for 24 hrs by CCK-8 assay relative to control. The note with it: at 4 µg/mL, read-out: Activity. The format is toxicity, cell-based.
Series [14] in a line: Cytotoxicity against human A549 cells assessed as cell viability at 64 ug/ml incubated for 24 hrs by CCK-8 assay relative to control. The note with it: at 64 µg/mL, read-out: Activity. The format is toxicity, cell-based.
Series [15] can be described thus: Cytotoxicity against human A549 cells assessed as cell viability at 16 ug/ml incubated for 24 hrs by CCK-8 assay relative to control. The format is toxicity, cell-based. Conditions: at 16 µg/mL, read-out: Activity.
For series [16], the system named is Cryptococcus neoformans. The series is described as follows: Antifungal activity against Cryptococcus neoformans ATCC 32719 assessed as inhibition of cell wall synthesis incubated for 24 hrs in absence of sorbitol. Type of series: functional.
For series [17], the system named is Candida albicans. Description: Antifungal activity against Candida albicans ATCC 76615 assessed as inhibition of cell wall synthesis incubated for 24 hrs in absence of sorbitol. Type of series: functional.
A short description of series [18]: Cytotoxicity against human A549 cells assessed as cell viability at 8 ug/ml incubated for 24 hrs by CCK-8 assay relative to control. Type of series: toxicity, cell-based. The note with it: at 8 µg/mL, read-out: Activity.

The MIC is the least concentration at which growth counts as inhibited. The term inhibition denotes the share of the control response that was lost under treatment. High values mean a response far below the control, low ones a response near the control. `O=C(/C=C/C(=O)Nc1ccc2c(c1)C(=O)NC1(CCCC1)N2)Nc1ccc(Br)cc1`: the MIC in the series with Aspergillus fumigatus [1] is 128 µg/mL (≈ 273 µM); in the series with Candida albicans [2], 128 µg/mL (≈ 273 µM); in the series on Aspergillus flavus [3] it was 128 µg/mL (≈ 273 µM); in the series with Cryptococcus neoformans [4] it was 64 µg/mL (≈ 136 µM). In the series with Candida tropicalis, this molecule registered an inhibition of 56.4%.

As a reminder, the IC50 is the concentration that gives 50% inhibition. With `O=C(/C=C/C(=O)Nc1ccccc1Cl)Nc1ccc2c(c1)C(=O)NC1(CCSC1)N2` (configuration not stated), the MIC in the series on Aspergillus fumigatus [1] came to 64 µg/mL (≈ 144 µM); with Candida albicans [2], 32 µg/mL (≈ 72.2 µM); in the series with Aspergillus flavus [3], 64 µg/mL (≈ 144 µM); in the series with Cryptococcus neoformans [4], 64 µg/mL (≈ 144 µM). Further, it took 420 µM to reach half-maximal inhibition in series [5] (IC50). Further, in the series with Candida tropicalis, the inhibition amounted to 58.4%.

`O=C(/C=C/C(=O)Nc1ccccc1Cl)Nc1ccc2c(c1)C(=O)NC1(CCOC1)N2` (configuration not stated): the MIC with Aspergillus fumigatus [1] stood at 64 µg/mL (≈ 150 µM); in the series on Candida albicans [2] it was 128 µg/mL (≈ 300 µM); in the series on Aspergillus flavus [3], 128 µg/mL (≈ 300 µM); in the series on Cryptococcus neoformans [4] it was 128 µg/mL (≈ 300 µM). Moreover, the inhibition in the series on Candida tropicalis turned out to be 53.7%.

For the molecule `Cc1ccc(NC(=O)/C=C/C(=O)Nc2ccc3c(c2)C(=O)NC2(CCSC2)N3)cc1` (configuration not stated), the MIC in the series on Aspergillus fumigatus [1] was found to be 128 µg/mL (≈ 303 µM); in the series on Candida albicans [2], 64 µg/mL (≈ 151 µM); in the series on Aspergillus flavus [3], 128 µg/mL (≈ 303 µM); in the series on Cryptococcus neoformans [4], 128 µg/mL (≈ 303 µM). Also, the IC50 in series [5] was determined as 883 µM. The molecule further showed an inhibition in the series with Candida tropicalis of 48.2%.

On to `O=C(/C=C/C(=O)Nc1ccc2c(c1)C(=O)NC1(CCSC1)N2)Nc1cccc(Cl)c1` (configuration not stated), for which the MIC was 32 µg/mL (≈ 72.2 µM) in the series with Aspergillus fumigatus [1], 32 µg/mL (≈ 72.2 µM) in the series with Candida albicans [2], 64 µg/mL (≈ 144 µM) in the series on Aspergillus flavus [3] and 64 µg/mL (≈ 144 µM) in the series on Cryptococcus neoformans [4]. In addition, it took 282 µM to reach half-maximal inhibition in series [5] (IC50). In addition, in the series on Candida tropicalis, the inhibition turned out to be 60.9%.

For `O=C(/C=C/C(=O)Nc1ccc2c(c1)C(=O)NC1(CCSC1)N2)Nc1cccc(Br)c1` (configuration not stated), the MIC in the series on Aspergillus fumigatus [1] is 64 µg/mL (≈ 131 µM); in the series on Candida albicans [2], 32 µg/mL (≈ 65.7 µM); in the series on Aspergillus flavus [3] it was 32 µg/mL (≈ 65.7 µM); in the series with Cryptococcus neoformans [4] it was 32 µg/mL (≈ 65.7 µM). The molecule further returned an IC50 in [5] of 153 µM. This molecule registered an inhibition in the series with Candida tropicalis of 67.5%.

As for `O=C(/C=C/C(=O)Nc1ccc2c(c1)C(=O)NC1(CCSC1)N2)Nc1ccc(F)cc1` (configuration not stated), the MIC came out at 128 µg/mL (≈ 300 µM) in the series with Aspergillus fumigatus [1], 64 µg/mL (≈ 150 µM) in the series with Candida albicans [2], 128 µg/mL (≈ 300 µM) in the series with Aspergillus flavus [3] and 64 µg/mL (≈ 150 µM) in the series on Cryptococcus neoformans [4]. The IC50 in series [5] is 593 µM. In the series with Candida tropicalis, this molecule came in with an inhibition of 54.6%.

Take `NC(=O)OC[C@H](O)[C@@H](O)[C@H](N)C(=O)N[C@H](C(=O)O)[C@H]1O[C@@H](n2cc(CO)c(=O)[nH]c2=O)[C@H](O)[C@@H]1O` [POLYOXIN B]: the MIC amounted to 16 µg/mL (≈ 31.5 µM) in the series with Aspergillus fumigatus [1]; 8 µg/mL (≈ 15.8 µM) with Candida albicans [2]; 16 µg/mL (≈ 31.5 µM) with Aspergillus flavus [6]; 16 µg/mL (≈ 31.5 µM) in the series with Aspergillus fumigatus [7]; 128 µg/mL in the series on Candida albicans [8]; 64 µg/mL with Cryptococcus neoformans [9]. For the same molecule, the MIC in the series with Aspergillus flavus [10] is 128 µg/mL; with Aspergillus fumigatus [11], 128 µg/mL; in the series with Aspergillus flavus [3] it was 16 µg/mL (≈ 31.5 µM); in the series on Cryptococcus neoformans [4], 16 µg/mL (≈ 31.5 µM); in the series on Cryptococcus neoformans [16], 16 µg/mL (≈ 31.5 µM); in the series with Candida albicans [17] it was 8 µg/mL (≈ 15.8 µM). Further, in the series on A549, the viability came to 84.3%. Also, in series [5], the IC50 amounted to 93.5 µM. Also, the viability at 24 h, 32 ug/ml in series [12] amounted to 92.7%. Besides, in series [13], the viability at 24 h, 4 ug/ml worked out at 99.3%. Also, the viability at 24 h, 64 ug/ml in series [14] was 91.2%. The viability at 24 h, 16 ug/ml in [15] was 97.9%. In the series on Candida tropicalis, this molecule displayed an inhibition of 84.7%. Besides, the viability at 24 h, 8 ug/ml in [18] is 98.7%.

As to `O=C(/C=C/C(=O)Nc1ccccc1F)Nc1ccc2c(c1)C(=O)NC1(CCSC1)N2` (configuration not stated), the MIC in the series with Aspergillus fumigatus [1] was determined as 128 µg/mL (≈ 300 µM); with Candida albicans [2], 64 µg/mL (≈ 150 µM); with Aspergillus flavus [3] it was 128 µg/mL (≈ 300 µM); in the series on Cryptococcus neoformans [4], 128 µg/mL (≈ 300 µM). In addition, the half-maximal inhibitory concentration (IC50) in series [5] was determined as 653 µM. Also, the inhibition in the series with Candida tropicalis was 52.2%.

Consider `O=C(/C=C/C(=O)Nc1ccccc1Cl)Nc1ccc2c(c1)C(=O)NC1(CCCC1)N2`, for which the MIC in the series with Aspergillus fumigatus [1] came out at 256 µg/mL (≈ 603 µM); with Candida albicans [2] it was 128 µg/mL (≈ 301 µM); with Aspergillus flavus [3] it was 256 µg/mL (≈ 603 µM); in the series on Cryptococcus neoformans [4] it was 128 µg/mL (≈ 301 µM). This molecule also displayed an inhibition with Candida tropicalis of 38.7%.

Consider `Cc1cccc(NC(=O)/C=C/C(=O)Nc2ccc3c(c2)C(=O)NC2(CCSC2)N3)c1` (configuration not stated), for which the minimum inhibitory concentration (MIC) in the series on Aspergillus fumigatus [1] came to 128 µg/mL (≈ 303 µM); in the series on Candida albicans [2], 64 µg/mL (≈ 151 µM); in the series on Aspergillus flavus [3] it was 128 µg/mL (≈ 303 µM); in the series with Cryptococcus neoformans [4], 64 µg/mL (≈ 151 µM). Moreover, the midpoint of inhibition in series [5], the IC50, lay at 800 µM. The inhibition in the series with Candida tropicalis was 47.2%.
